In US7919517B2, “Indazole derivatives” (Kyowa Hakko Kirin Co., Ltd., priority 2003, dated 2011):
Structures can show the parent of a compound that is named as a salt.

Tests used:
Type in all cases: cell-based
[1] = tested on: human chronic myeloid leukemia cell line K562; assay: Cytostatic activity on leukemia cell line K562 (WST-1); details: Homo sapiens; 10 μmol/L, 72 hours, K562 cells; read-out: cytostatic rate K562 (%) (10 μmol/L)
Description: (§1) The cytostatic rates of a test compound on human acute myeloid leukemia cell lines MV-4-11 and ML-1, and human chronic myeloid leukemia cell line K562 were determined in the following manner.
(§2) Each cell was cultured using Roswell Park Memorial Institute's Medium (RPMI) 1640 (Gibco, Catalog No. 11875-093) containing 10% fetal bovine serum (Gibco, Catalog No. 10437-028) and 1% penicillin/streptomycin (1:1) (Gibco, Catalog No. 15140-122). Each 80 μL of the MV-4-11 cell having a concentration of 7.5×10^4 cells/mL (or the ML-1 cell or K562 cell having a concentration of 2.5×10^4 cells/mL) was inoculated to wells of a TC MICROWELL 96U plate (Nalge Nunc International, Catalog No. 163320) and was cultured in a 5% carbon dioxide gas incubator at 37° C. for 4 hours. As a blank, only RPMI medium (80 μL) was added to a well. Each 20 μL of a solution of the test compound in dimethyl sulfoxide (DMSO) which was prepared to make the final concentration to 10 μmol/L, was added to the MV-4-11 cell, ML-1 cell and K562 cell, respectively. Each 20 μL of DMSO was added to the control well and the blank well to […]. After adding the test compound, the cells were incubated in a 5% carbon dioxide gas incubator at 37° C. for 72 hours. After adding 20 μL of WST-1 reagent {4-[3-(4-iodophenyl)-2-(4-nitrophenyl)-2H-5-tetrazolio]-1,3-benzene disulfonate sodium salt} (Roche Diagnostics K.K., Catalog No. 1644807) diluted to 50% with RPMI medium, the cells were further incubated at 37° C. for 2 hours. Then, the absorbances at 450 nm (reference wavelength: 690 nm) were determined with a microplate spectrophotometer SPECTRA max 340PC (Molecular Devices Corporation). The relative growth (%) of a well to which the test compound had been added was determined while setting the absorbance of a well to which not the test compound but DMSO alone had been added (control) at 100% and that of a well containing RPMI medium alone at 0%. The cytostatic rate (%) of the test compound was determined by subtracting the calculated relative growth from 100.

[2] = tested on: human colon cancer cell line Colo205; assay: Cytostatic activity on solid carcinoma cell line Colo205 (WST-1); details: Homo sapiens, COLO 205; 10 μmol/L, 72 hours, Colo205 cells; read-out: cytostatic rate Colo205 (%) (10 μmol/L)
Description: as §2
The cytostatic rate of a test compound on the human colon cancer cell line Colo205 was determined in the following manner.
The cell was cultured using Roswell Park Memorial Institute's Medium (RPMI) 1640 (Gibco, Catalog No. 11875-093) containing 10% fetal bovine serum (Gibco, Catalog No. 10437-028) and 1% penicillin/streptomycin (1:1) (Gibco, Catalog No. 15140-122). Each 80 μL of the Colo205 having a concentration of 1.25×10^4 cells/mL was inoculated to wells of a TC MICROWELL 96F plate (Nalge Nunc International, Catalog No. 167008) and was cultured in a 5% carbon dioxide gas incubator at 37° C. for 24 hours. As a blank, only RPMI (80 μL) was added to a well. Each 20 μL of a solution of the test compound in DMSO which was prepared to make the final concentration to 10 μmol/L, was added to the Colo205 cell. Each 20 μL of DMSO was added to the control well and the blank well to […]. After adding the test compound, the cell was incubated in a 5% carbon dioxide gas incubator at 37° C. for 72 hours. The cytostatic rate (%) was then determined in the same way as the leukemia cell lines.

[3] = tested on: human acute myeloid leukemia cell line ML-1; assay: Cytostatic activity on leukemia cell line ML-1 (WST-1); details: Homo sapiens, ML1; 10 μmol/L, 72 hours, ML-1 cells; read-out: cytostatic rate ML-1 (%) (10 μmol/L)
Description: as §1, §2

[4] = tested on: human acute myeloid leukemia cell line MV-4-11; assay: Cytostatic activity on leukemia cell line MV-4-11 (WST-1); details: Homo sapiens, MV4-11; 10 μmol/L, 72 hours, MV-4-11 cells; read-out: cytostatic rate MV-4-11 (%) (10 μmol/L)
Description: as §1, §2

CCN(CC)CCNC(=O)c1ccc(/C=C/c2n[nH]c3ccccc23)cc1 [Compound 63, (E)-N-[2-(diethylamino)ethyl]-4-[2-(1H-indazol-3-yl)vinyl]benzamide] gave an inhibition at 10 µM [1] of 76%, an inhibition at 10 µM [2] of 88% and an inhibition at 10 µM [3] of 87%. For the same compound, the inhibition at 10 µM [4] was 98%.
With NC1CCN(C(=O)c2ccc(/C=C/c3n[nH]c4ccccc34)cc2)CC1 [Compound 64, (E)-1-{4-[2-(1H-indazol-3-yl)vinyl]benzoyl}-4-aminopiperidine] the inhibition at 10 µM [1] was 91%, the inhibition at 10 µM [2] was 94% and the inhibition at 10 µM [3] was 89%. It also gave an inhibition at 10 µM [4] of 98%.
For COCC(=O)N1CCN(C(=O)c2ccc(/C=C/c3n[nH]c4ccccc34)cc2)CC1 [Compound 65, (E)-4-methoxyacetyl-1-{4-[2-(1H-indazol-3-yl)vinyl]benzoyl}piperazine], the inhibition at 10 µM [1] was 85%, the inhibition at 10 µM [2] was 88% and the inhibition at 10 µM [3] was 86%. The inhibition at 10 µM [4] was 97%.
CC(C)CC(=O)N1CCN(C(=O)c2ccc(/C=C/c3n[nH]c4ccccc34)cc2)CC1 [Compound 66, (E)-4-(3-methylbutyryl)-1-{4-[2-(1H-indazol-3-yl)vinyl]benzoyl}piperazine] showed an inhibition at 10 µM [1] of 89%, an inhibition at 10 µM [2] of 83% and an inhibition at 10 µM [3] of 74%. It also gave an inhibition at 10 µM [4] of 99%.
With CC(C)(O)C(=O)N1CCN(C(=O)c2ccc(/C=C/c3n[nH]c4ccccc34)cc2)CC1 [Compound 68, (E)-4-(2-methyl-2-hydroxypropionyl)-1-{4-[2-(1H-indazol-3-yl)vinyl]benzoyl}piperazine] the inhibition at 10 µM [1] was 91%, the inhibition at 10 µM [2] was 90% and the inhibition at 10 µM [3] was 79%. For the same compound, the inhibition at 10 µM [4] was 97%.
Compound CC(C)(CO)C(=O)N1CCN(C(=O)c2ccc(/C=C/c3n[nH]c4ccccc34)cc2)CC1 [Compound 72, (E)-4-(3-hydroxy-2,2-dimethylpropionyl)-1-{4-[2-(1H-indazol-3-yl)vinyl]benzoyl}piperazine] has an inhibition at 10 µM [1] of 95%, an inhibition at 10 µM [2] of 93% and an inhibition at 10 µM [3] of 80%. The inhibition at 10 µM [4] was 100%.
In the case of CC(=O)N1CCN(C(=O)c2ccc(/C=C/c3n[nH]c4ccccc34)cc2C)CC1 [Compound 73, (E)-4-acetyl-1-{2-methyl-4-[2-(1H-indazol-3-yl)vinyl]benzoyl}piperazine], the inhibition at 10 µM [1] is reported as 68%, the inhibition at 10 µM [2] is reported as 89% and the inhibition at 10 µM [3] is reported as 87%. The inhibition at 10 µM [4] was 97%.
COC(=O)N1CCN(C(=O)c2ccc(/C=C/c3n[nH]c4ccccc34)cc2)CC1 [Compound 75, (E)-4-methoxycarbonyl-1-{4-[2-(1H-indazol-3-yl)vinyl]benzoyl}piperazine hydrochloride] gave an inhibition at 10 µM [1] of 85%, an inhibition at 10 µM [2] of 88% and an inhibition at 10 µM [3] of 88%. For the same compound, the inhibition at 10 µM [4] was 99%.
For CC1(C(=O)N2CCN(C(=O)c3ccc(/C=C/c4n[nH]c5ccccc45)cc3)CC2)CC1 [Compound 77, (E)-4-(1-methylcyclopropanecarbonyl)-1-{4-[2-(1H-indazol-3-yl)vinyl]benzoyl}piperazine], the inhibition at 10 µM [1] was 95%, the inhibition at 10 µM [2] was 86% and the inhibition at 10 µM [3] was 80%. For the same compound, the inhibition at 10 µM [4] was 98%.
Compound CC(C)(C)CC(=O)N1CCN(C(=O)c2ccc(/C=C/c3n[nH]c4ccccc34)cc2)CC1 [Compound 78, (E)-4-(3,3-dimethylbutyryl)-1-{4-[2-(1H-indazol-3-yl)vinyl]benzoyl}piperazine] has an inhibition at 10 µM [1] of 90%, an inhibition at 10 µM [2] of 82% and an inhibition at 10 µM [3] of 64%. The inhibition at 10 µM [4] was 98%.
Work on CCN(CC)C(=O)C1CCN(C(=O)c2ccc(/C=C/c3n[nH]c4ccccc34)cc2)CC1 [Compound 81, (E)-N,N-diethyl-1-{4-[2-(1H-indazol-3-yl)vinyl]benzoyl}piperidine-4-carboxamide] yielded an inhibition at 10 µM [1] of 95%, an inhibition at 10 µM [2] of 85% and an inhibition at 10 µM [3] of 77%. The inhibition at 10 µM [4] was 98%.
O=C(c1ccc(/C=C/c2n[nH]c3ccccc23)cc1)N1CCCNCC1 [Compound 85, (E)-1-{4-[2-(1H-indazol-3-yl)vinyl]benzoyl}homopiperazine dihydrochloride] gave an inhibition at 10 µM [1] of 90%, an inhibition at 10 µM [2] of 89% and an inhibition at 10 µM [3] of 78%. For the same compound, the inhibition at 10 µM [4] was 99%.
NC(=O)C1CCN(C(=O)c2ccc(/C=C/c3n[nH]c4ccccc34)cc2)CC1 [Compound 86, (E)-1-{4-[2-(1H-indazol-3-yl)vinyl]benzoyl}piperidine-4-carboxamide] was tested, and the inhibition at 10 µM [1] was 88%, the inhibition at 10 µM [2] was 89% and the inhibition at 10 µM [3] was 87%. The inhibition at 10 µM [4] was 98%.
Work on O=C(c1ccc(/C=C/c2n[nH]c3ccccc23)cc1)N1CCC(O)CC1 [Compound 87, (E)-1-{4-[2-(1H-indazol-3-yl)vinyl]benzoyl}-4-hydroxypiperidine] yielded an inhibition at 10 µM [1] of 76%, an inhibition at 10 µM [2] of 86% and an inhibition at 10 µM [3] of 88%. The inhibition at 10 µM [4] was 99%.
For O=C1CN(C(=O)c2ccc(/C=C/c3n[nH]c4ccccc34)cc2)CCN1 [Compound 89, (E)-4-{4-[2-(1H-indazol-3-yl)vinyl]benzoyl}piperazin-2-one], the inhibition at 10 µM [1] was 61%, the inhibition at 10 µM [2] was 92% and the inhibition at 10 µM [3] was 86%. For the same compound, the inhibition at 10 µM [4] was 98%.
Work on CC(C)(O)CC(=O)N1CCN(C(=O)c2ccc(/C=C/c3n[nH]c4ccccc34)cc2)CC1 [Compound 90, (E)-4-(3-methyl-3-hydroxybutyryl)-1-{4-[2-(1H-indazol-3-yl)vinyl]benzoyl}piperazine] yielded an inhibition at 10 µM [1] of 85%, an inhibition at 10 µM [2] of 88% and an inhibition at 10 µM [3] of 79%. The inhibition at 10 µM [4] was 98%.
For CN(C)C(=O)C1CCN(C(=O)c2ccc(/C=C/c3n[nH]c4ccccc34)cc2)CC1 [Compound 92, (E)-N,N-dimethyl-1-{4-[2-(1H-indazol-3-yl)vinyl]benzoyl}piperidine-4-carboxamide], the inhibition at 10 µM [1] was 89%, the inhibition at 10 µM [2] was 89% and the inhibition at 10 µM [3] was 88%. It also gave an inhibition at 10 µM [4] of 98%.
Compound Cc1cc(/C=C/c2n[nH]c3ccccc23)ccc1C(=O)N1CCNCC1 [Compound 95, (E)-1-{4-[2-(1H-indazol-3-yl)vinyl]-2-methylbenzoyl}piperazine dihydrochloride] has an inhibition at 10 µM [1] of 93%, an inhibition at 10 µM [2] of 86% and an inhibition at 10 µM [3] of 70%. It also gave an inhibition at 10 µM [4] of 96%.
Work on COCCC(=O)N1CCN(C(=O)c2ccc(/C=C/c3n[nH]c4ccccc34)cc2)CC1 [Compound 98, (E)-4-(3-methoxypropionyl)-1-{4-[2-(1H-indazol-3-yl)vinyl]benzoyl}piperazine] yielded an inhibition at 10 µM [1] of 89%, an inhibition at 10 µM [2] of 88% and an inhibition at 10 µM [3] of 79%. The inhibition at 10 µM [4] was 98%.
With O=C(NC1CCN(C(=O)c2ccc(/C=C/c3n[nH]c4ccccc34)cc2)CC1)N1CCOCC1 [Compound 99, (E)-1-{4-[2-(1H-indazol-3-yl)vinyl]benzoyl}-4-(morpholinocarbonylamino)piperidine] the inhibition at 10 µM [1] was 94%, the inhibition at 10 µM [2] was 95% and the inhibition at 10 µM [3] was 86%. It also gave an inhibition at 10 µM [4] of 97%.
C[C@H]1CN(C(=O)c2ccc(/C=C/c3n[nH]c4ccccc34)cc2)CCN1 [Compound 101, (S)-(E)-1-{4-[2-(1H-indazol-3-yl)vinyl]benzoyl}-3-methylpiperazine dihydrochloride] was tested, and the inhibition at 10 µM [1] was 92%, the inhibition at 10 µM [2] was 87% and the inhibition at 10 µM [3] was 77%. It also gave an inhibition at 10 µM [4] of 99%.
